In patent US7071197B2, “N,N-disubstituted diazocycloalkanes” (Recordati S.A., priority 2002, dated 2006):
Like-named read-outs stand apart in the source and are kept apart here.

Key:
[1] = biological target: T1, post-synaptic 5-HT1A receptors (Rattus norvegicus, UniProt P19327); assay: Inhibition of stereotypy (rhythmic forepaw treading) induced by 8-OH-DPAT in rats; type: in vivo; conditions: for inhibition at 1 mg/kg / inhibition at 3 mg/kg / inhibition at 10 mg/kg / inhibition at 0.01 mg/kg / inhibition at 0.03 mg/kg / inhibition at 0.1 mg/kg / inhibition at 0.3 mg/kg: rat; for inhibition at 1 mg/kg: 1 mg/kg p.o.; for inhibition at 3 mg/kg: 3 mg/kg p.o.; for inhibition at 10 mg/kg: 10 mg/kg p.o.; for inhibition at 0.01 mg/kg: 0.01 mg/kg i.v.; for inhibition at 0.03 mg/kg: 0.03 mg/kg i.v.; for inhibition at 0.1 mg/kg: 0.1 mg/kg i.v.
T1 construct: from tissue; host or cells: whole animal, male Sprague-Dawley rat (in vivo)
T1 sequence (P19327 1-422): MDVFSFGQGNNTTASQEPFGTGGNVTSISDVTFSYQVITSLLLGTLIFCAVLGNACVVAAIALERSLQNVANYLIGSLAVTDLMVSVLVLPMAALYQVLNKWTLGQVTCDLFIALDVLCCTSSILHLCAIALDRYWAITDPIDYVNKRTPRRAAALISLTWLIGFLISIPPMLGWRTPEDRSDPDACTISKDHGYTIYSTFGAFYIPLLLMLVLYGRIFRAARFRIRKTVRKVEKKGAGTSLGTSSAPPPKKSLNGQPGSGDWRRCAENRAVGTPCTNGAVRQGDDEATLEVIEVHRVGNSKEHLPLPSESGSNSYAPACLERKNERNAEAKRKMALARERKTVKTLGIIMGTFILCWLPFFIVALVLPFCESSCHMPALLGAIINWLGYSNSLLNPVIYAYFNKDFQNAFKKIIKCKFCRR
Procedure: The inhibitory effect of 5-HT1A-receptor antagonists on stereotyped forepaw treading induced in rats by subcutaneous injection of 8-OH-DPAT was evaluated by the method of Tricklebank (Tricklebank et al., Eur. J. Pharmacol., 117: 15, 1985) with minor modifications as described below.
Male Sprague-Dawley rats [Crl: CD® (SD) IGS BR] weighing 150–175 g from Charles River Italia were used. The animals were housed with free access to food and water and maintained on a forced 12-hour-light/12-hour-dark cycle at 22–24° C. of temperature. On the day of the experiment, the rats were placed singly in clear plastic containers, 10–15 minutes before administration of the vehicle or compounds to be tested. For evaluation of antagonistic activity after intravenous or oral administration, the compounds were administered 1 and 4 hours before induction of stereotypy by 8-OH-DPAT (1 mg/kg subcutaneously). Observation sessions lasted 30 seconds and began 3 minutes after 8-OH-DPAT treatment and were repeated every 3 minutes over a period of 15 minutes.
The appearance of the symptom induced by postsynaptic stimulation of 5-HT1A receptors was noted, and the intensity was scored using an intensity scale in which: 0=absent, 1=equivocal, 2=present and 3=intense. Behavioural scores for treated rats were accumulated throughout the observation time (5 observation periods) and expressed as mean values of 4 rats/dose. Change in mean values of treated animals in comparison with control (vehicle) group, expressed as per-cent inhibition, was used to quantify the antagonistic activity.

[2] = test system: rhythmic bladder-voiding contractions in anaesthetised rats; assay: Rhythmic bladder-voiding contractions induced by bladder filling in anaesthetised rats; type: in vivo, rat; conditions: for ED50: Rattus norvegicus, read-out: ED50 (frequency) (extrapolated dose inducing a reduction of the number of contractions > 30% in 50% of treated rats); for ED50 / ED10 min (extrapolated dose inducing 10 minutes of disappearance of the contractions): intravenous administration, anaesthetised rats; for time of disappearance of bladder contractions: after administration of 0.3 mg/kg
Procedure: Female Sprague-Dawley rats weighing 225–275 g (Crl: CD® (SD) IGS BR, Charles River Italia) were used. The animals were housed with free access to food and water and maintained on a forced 12-hour alternating light-dark cycle at 22–24° C. for at least one week, except during the experiment. The activity on rhythmic bladder voiding contractions was evaluated according to the method of Dray (Dray J., Pharmacol. Methods, 13:157, 1985), with some modifications as in Guarneri (Guarneri, Pharmacol. Res. 27:173, 1993). Briefly, the rats were anaesthetised by subcutaneous injection of 1.25 g/kg (5 ml/kg) urethane, after which the urinary bladder was catheterised via the urethra using PE 50 polyethylene tubing filled with physiological saline. The catheter was tied in place with a ligature around the external urethral orifice and was connected to conventional pressure transducers (Statham P23 ID/P23 XL). […] The bladder was then filled via the recording catheter by incremental volumes of warm (37° C.) saline until reflex bladder-voiding contractions occurred (usually 0.81.5 ml). For intravenous injection of bioactive compounds, PE 50 polyethylene tubing filled with physiological saline was inserted into the jugular vein.
From the cystometrogram, the number of contractions recorded 15 minutes before (basal values) and after treatment, as well as the mean amplitude of these contractions (mean height of the peaks in mmHg), was evaluated.
Since most compounds produced an effect that was relatively rapid in onset and led to a complete cessation of bladder contractions, bioactivity was conveniently estimated by measuring the duration of bladder quiescence (i.e., the length of the time during which no contractions occurred). The number of tested animals showing a reduction in the number of contractions higher than 30% of that observed in the basal period was recorded too.
The extrapolated doses which induced a reduction in the number of contractions greater than 30% in 50% of the treated rats (ED50) were evaluated by the method of Bliss (Bliss C. I., Quart J. Pharm. Pharmacol. 11, 192–216, 1938).

[3] = after intravenous administration
[4] = iv, 0.3 mg/kg i.v., 1 h before 8-OH-DPAT
[5] = iv, 0.3 mg/kg i.v., 4 h before 8-OH-DPAT
[6] = po, 0.3 mg/kg p.o., 1 h before 8-OH-DPAT
[7] = po, 0.3 mg/kg p.o., 4 h before 8-OH-DPAT

SMILES: COc1ccccc1N1CCN(CC[C@@H](c2ccccc2F)[C@H](O)C2CCCCC2)CC1 (racemic) [Ex. 1, 1-[(SR-RS)-4-cyclohexyl-4-hydroxy-3-(2-fluorophenyl)-butyl]-4-(2-methoxyphenyl)-piperazine]
- ED75 (equieffective dose inhibiting the forepaw treading by 75%) ([1]; 1 h p.o.): 1 h p.o.: ED75 = 3.3 mg/kg/
- ED75 (equieffective dose inhibiting the forepaw treading by 75%) ([1]; 4 h p.o.): 4 h p.o.: ED75 = 4.0 mg/kg
- inhibition at 1 mg/kg ([1]; po, 1 h before 8-OH-DPAT): 35%
- inhibition at 1 mg/kg ([1]; po, 4 h before 8-OH-DPAT): 37%
- inhibition at 3 mg/kg ([1]; po, 1 h before 8-OH-DPAT): 84%
- inhibition at 3 mg/kg ([1]; po, 4 h before 8-OH-DPAT): 72%
- inhibition at 10 mg/kg ([1]; po, 1 h before 8-OH-DPAT): 100%
- inhibition at 10 mg/kg ([1]; po, 4 h before 8-OH-DPAT): 96%
- ED50 [2]: 0.03 mg/kg
- ED10 min (extrapolated dose inducing 10 minutes of disappearance of the contractions) [2]: 0.198 mg/kg

SMILES: COc1ccccc1N1CCN(CC[C@H](c2ccccc2)[C@@H](O)C2CCCCC2)CC1 (racemic) [Ex. 5, 1-[(RS,SR)-4-Cyclohexyl-4-hydroxy-3-phenyl-butyl]-4-(2-methoxyphenyl)-piperazine, reference compound]
- ED75 (equieffective dose inhibiting the forepaw treading by 75%) [1]: 4 h p.o.: ED75 = 4.6 mg/kg
- ED75 (equieffective dose inhibiting the forepaw treading by 75%) ([1]; 1 h i.v.): 1 h i.v.: ED75 = 0.032 mg/kg/
- ED75 (equieffective dose inhibiting the forepaw treading by 75%) ([1]; 1 h p.o.): 1 h p.o.: ED75 = 2.1 mg/kg/
- ED75 (equieffective dose inhibiting the forepaw treading by 75%) ([1]; 4 h i.v.): 4 h i.v.: ED75 = 0.138 mg/kg
- potency in inhibiting forepaw treading, comparison [1, 3]: practically equipotent
- inhibition at 0.01 mg/kg ([1]; iv, 1 h before 8-OH-DPAT): 41%
- inhibition at 0.01 mg/kg ([1]; iv, 4 h before 8-OH-DPAT): 26%
- inhibition at 0.03 mg/kg ([1]; iv, 1 h before 8-OH-DPAT): 82%
- inhibition at 0.03 mg/kg ([1]; iv, 4 h before 8-OH-DPAT): 54%
- inhibition at 0.1 mg/kg ([1]; iv, 1 h before 8-OH-DPAT): 100%
- inhibition at 0.1 mg/kg ([1]; iv, 4 h before 8-OH-DPAT): 72%
- inhibition at 0.3 mg/kg [1, 4]: 100%
- inhibition at 0.3 mg/kg [1, 5]: 85%
- inhibition at 0.3 mg/kg [1, 6]: 8%
- inhibition at 0.3 mg/kg [1, 7]: 20%
- inhibition at 1 mg/kg ([1]; po, 1 h before 8-OH-DPAT): 42%
- inhibition at 1 mg/kg ([1]; po, 4 h before 8-OH-DPAT): 46%
- inhibition at 3 mg/kg ([1]; po, 1 h before 8-OH-DPAT): 90%
- inhibition at 3 mg/kg ([1]; po, 4 h before 8-OH-DPAT): 67%
- ED50 [2]: 0.018 mg/kg
- time of disappearance of bladder contractions [2]: 14 min
- ED10 min (extrapolated dose inducing 10 minutes of disappearance of the contractions) [2]: 0.066 mg/kg

SMILES: COc1ccccc1N1CCN(CC[C@H](c2ccccc2F)[C@@H](O)C2CCCCC2)CC1 [Ex. 1Y, 1-[(3R,4S)-4-cyclohexyl-4-hydroxy-3-(2-fluorophenyl)-butyl]-4-(2-methoxyphenyl)-piperazine]
- ED75 (equieffective dose inhibiting the forepaw treading by 75%) ([1]; 1 h i.v.): 1 h i.v.: ED75 = 0.038 mg/kg/
- ED75 (equieffective dose inhibiting the forepaw treading by 75%) ([1]; 1 h p.o.): 1 h p.o.: ED75 = 1.7 mg/kg/
- ED75 (equieffective dose inhibiting the forepaw treading by 75%) ([1]; 4 h i.v.): 4 h i.v.: ED75 = 0.182 mg/kg
- ED75 (equieffective dose inhibiting the forepaw treading by 75%) ([1]; 4 h p.o.): 4 h p.o.: ED75 = 2.6 mg/kg
- potency in inhibiting forepaw treading, comparison [1, 3]: practically equipotent
- potency in inhibiting forepaw treading, comparison ([1]; after oral administration, in particular at four hours): more potent than Ex. 5
- inhibition at 0.01 mg/kg ([1]; iv, 1 h before 8-OH-DPAT): 37%
- inhibition at 0.01 mg/kg ([1]; iv, 4 h before 8-OH-DPAT): 11%
- inhibition at 0.03 mg/kg ([1]; iv, 1 h before 8-OH-DPAT): 72%
- inhibition at 0.03 mg/kg ([1]; iv, 4 h before 8-OH-DPAT): 35%
- inhibition at 0.1 mg/kg ([1]; iv, 1 h before 8-OH-DPAT): 100%
- inhibition at 0.1 mg/kg ([1]; iv, 4 h before 8-OH-DPAT): 65%
- inhibition at 0.3 mg/kg [1, 4]: 100%
- inhibition at 0.3 mg/kg [1, 5]: 84%
- inhibition at 0.3 mg/kg [1, 6]: 18%
- inhibition at 0.3 mg/kg [1, 7]: 18%
- inhibition at 1 mg/kg ([1]; po, 1 h before 8-OH-DPAT): 58%
- inhibition at 1 mg/kg ([1]; po, 4 h before 8-OH-DPAT): 38%
- inhibition at 3 mg/kg ([1]; po, 1 h before 8-OH-DPAT): 92%
- inhibition at 3 mg/kg ([1]; po, 4 h before 8-OH-DPAT): 85%
- ED50 [2]: 0.015 mg/kg
- time of disappearance of bladder contractions [2]: 24 min
- extrapolated dose inducing 10 minutes of disappearance of the contractions, fold lower than Ex. 5 ([2]; compared with Ex. 5): at least 2 fold
- ED10 min (extrapolated dose inducing 10 minutes of disappearance of the contractions) [2]: 0.023 mg/kg

SMILES: COc1ccccc1N1CCN(CC[C@H](c2ccccc2F)[C@H](O)C2CCCCC2)CC1 [Ex. 2X, 1-[(3R,4R)-4-cyclohexyl-4-hydroxy-3-(2-fluorophenyl)-butyl]-4-(2-methoxyphenyl)-piperazine]
- ED75 (equieffective dose inhibiting the forepaw treading by 75%) ([1]; 1 h i.v.): 1 h i.v.: ED75 = 0.041 mg/kg/
- ED75 (equieffective dose inhibiting the forepaw treading by 75%) ([1]; 4 h i.v.): 4 h i.v.: ED75 = 0.152 mg/kg
- potency in inhibiting forepaw treading, comparison [1, 3]: practically equipotent
- inhibition at 0.01 mg/kg ([1]; iv, 1 h before 8-OH-DPAT): 39%
- inhibition at 0.01 mg/kg ([1]; iv, 4 h before 8-OH-DPAT): 6%
- inhibition at 0.03 mg/kg ([1]; iv, 1 h before 8-OH-DPAT): 65%
- inhibition at 0.03 mg/kg ([1]; iv, 4 h before 8-OH-DPAT): 49%
- inhibition at 0.1 mg/kg ([1]; iv, 1 h before 8-OH-DPAT): 100%
- inhibition at 0.1 mg/kg ([1]; iv, 4 h before 8-OH-DPAT): 63%
- inhibition at 0.3 mg/kg [1, 4]: 100%
- inhibition at 0.3 mg/kg [1, 5]: 89%
